From the NIST ThermoML archive (doi:10.1021/acs.jced.7b00092)
Numbers after ± are expanded uncertainties.

Conditions: Liquid, Frequency=8 MHz, Pulse-echo method

C[Si](C)(C)O[Si](C)(C)O[Si](C)(C)C [octamethyltrisiloxane]
Conditions	speed of sound [m/s]
299.61 K, 10196 kPa	986.47 ± 1.2
299.62 K, 101 kPa	911.32 ± 1.2
299.63 K, 502 kPa	914.41 ± 1.2
299.64 K, 984 kPa	918.29 ± 1.2
299.64 K, 1480 kPa	922.14 ± 1.2
299.65 K, 2012 kPa	926.38 ± 1.2
299.66 K, 3441 kPa	937.36 ± 1.2
299.68 K, 20155 kPa	1050.3 ± 1.2
299.69 K, 5923 kPa	955.8 ± 1.2
299.71 K, 30179 kPa	1107.3 ± 1.2
349.58 K, 3704 kPa	781 ± 1.2
349.59 K, 2066 kPa	764.64 ± 1.2
349.59 K, 10127 kPa	839.26 ± 1.2
349.6 K, 1556 kPa	759.34 ± 1.3
349.61 K, 6067 kPa	803.25 ± 1.2
349.61 K, 20075 kPa	915.62 ± 1.1
349.64 K, 29800 kPa	980.01 ± 1.1
349.65 K, 1075 kPa	754.2 ± 1.3
349.69 K, 558 kPa	748.58 ± 1.3
349.91 K, 111 kPa	742.97 ± 1.3
399.42 K, 29701 kPa	873.39 ± 1.1
399.95 K, 2018 kPa	610.77 ± 1.5
399.96 K, 508 kPa	588.68 ± 1.4
399.96 K, 993 kPa	595.83 ± 1.6
399.96 K, 1439 kPa	602.33 ± 1.6
399.96 K, 3510 kPa	630.8 ± 1.6
400.02 K, 9928 kPa	704.99 ± 1.2
400.15 K, 19875 kPa	796.17 ± 1.1
449.44 K, 23518 kPa	734.5 ± 1.1
449.96 K, 1045 kPa	448.89 ± 2.2
449.98 K, 1523 kPa	458.69 ± 2.1
449.99 K, 492 kPa	436.7 ± 2.3
450.01 K, 1994 kPa	468.09 ± 2
450.05 K, 3497 kPa	495.73 ± 1.8
450.09 K, 6009 kPa	536.6 ± 1.6
450.14 K, 9983 kPa	591.45 ± 1.4
450.22 K, 20246 kPa	701.94 ± 1.2
498.94 K, 3487 kPa	373.05 ± 2.5
498.96 K, 1989 kPa	328.83 ± 3
499 K, 5834 kPa	424.21 ± 1.9
499.02 K, 1521 kPa	313.47 ± 3.4
499.02 K, 10178 kPa	498.23 ± 1.5
499.04 K, 1000 kPa	292.6 ± 3.8
499.05 K, 16859 kPa	585.07 ± 1.4
549.67 K, 15312 kPa	492.6 ± 1.5
549.74 K, 6653 kPa	340.31 ± 2.3
549.79 K, 4484 kPa	279.71 ± 2.9
549.8 K, 10050 kPa	411.61 ± 1.9
549.84 K, 12528 kPa	452.26 ± 1.6

C[Si](C)(C)O[Si](C)(C)O[Si](C)(C)O[Si](C)(C)C [decamethyltetrasiloxane]
Conditions	speed of sound [m/s]
217.81 K, 2 kPa	1232 ± 1.1
217.81 K, 1324 kPa	1238.8 ± 1.1
217.85 K, 9419 kPa	1278.4 ± 1.2
217.9 K, 19699 kPa	1325.2 ± 1.2
217.99 K, 40255 kPa	1409.2 ± 1.3
218.01 K, 60115 kPa	1481.3 ± 1.3
218.09 K, 79712 kPa	1545.9 ± 1.4
218.16 K, 98572 kPa	1603 ± 1.5
218.24 K, 118233 kPa	1658.4 ± 1.6
249.42 K, 119047 kPa	1575.5 ± 1.5
249.53 K, 98950 kPa	1515.2 ± 1.4
249.65 K, 80370 kPa	1454.9 ± 1.3
249.74 K, 59554 kPa	1380.8 ± 1.2
249.8 K, 19343 kPa	1208.7 ± 1.1
249.8 K, 39384 kPa	1300.3 ± 1.2
249.84 K, 1077 kPa	1110.1 ± 1
249.84 K, 9240 kPa	1156.2 ± 1.1
299.9 K, 16 kPa	925.67 ± 0.86
299.92 K, 1080 kPa	933.63 ± 0.87
299.94 K, 121 kPa	926.31 ± 0.87
299.96 K, 958 kPa	932.76 ± 0.88
299.98 K, 9659 kPa	994.25 ± 0.92
300 K, 19671 kPa	1056.3 ± 0.98
300 K, 60024 kPa	1252.4 ± 1.1
300 K, 80266 kPa	1331.2 ± 1.2
300 K, 99198 kPa	1397.7 ± 1.3
300.01 K, 40202 kPa	1164.3 ± 1.1
300.04 K, 119626 kPa	1463.1 ± 1.4
349.87 K, 59744 kPa	1145.5 ± 1.1
349.89 K, 9447 kPa	851.51 ± 0.8
349.89 K, 99170 kPa	1302.5 ± 1.2
349.89 K, 119296 kPa	1370.8 ± 1.4
349.9 K, 19447 kPa	925.37 ± 0.87
349.92 K, 80462 kPa	1232.5 ± 1.1
349.93 K, 1369 kPa	780.56 ± 0.74
349.93 K, 40092 kPa	1049.2 ± 0.96
399.55 K, 120290 kPa	1300.1 ± 1.3
399.6 K, 1077 kPa	636.31 ± 0.64
399.6 K, 9691 kPa	731.33 ± 0.7
399.67 K, 1234 kPa	638.18 ± 0.64
399.67 K, 20055 kPa	820.52 ± 0.8
399.69 K, 38533 kPa	945.04 ± 0.88
399.69 K, 60934 kPa	1064.3 ± 0.97
399.7 K, 81120 kPa	1154.3 ± 1.1
399.7 K, 99014 kPa	1224.6 ± 1.1
449.89 K, 9702 kPa	623.33 ± 0.62
449.92 K, 19667 kPa	723.35 ± 0.73
449.96 K, 40506 kPa	876.94 ± 0.83
449.99 K, 59941 kPa	986.94 ± 0.91
450.01 K, 80184 kPa	1082.5 ± 1
450.03 K, 99670 kPa	1162.7 ± 1.1
450.04 K, 119488 kPa	1235.4 ± 1.3
450.05 K, 1060 kPa	502.02 ± 0.54
499.61 K, 9979 kPa	534.61 ± 0.56
499.67 K, 20291 kPa	650.54 ± 0.68
499.69 K, 40057 kPa	807.98 ± 0.78
499.72 K, 4164 kPa	442.17 ± 0.49
499.72 K, 60022 kPa	927.39 ± 0.86
499.75 K, 5168 kPa	460.32 ± 0.51
499.75 K, 80169 kPa	1026.5 ± 0.95
499.76 K, 1001 kPa	371.6 ± 0.46
499.78 K, 3058 kPa	420.07 ± 0.48
499.8 K, 99589 kPa	1109 ± 1
499.82 K, 1926 kPa	395 ± 0.47
499.89 K, 119374 kPa	1183.6 ± 1.2
